Data reported in patent publication US6235493A, “Amino acid substituted-cresyl violet, synthetic fluorogenic substrates for the analysis of agents in individual in vivo cells or tissue” (priority 1998, dated 2001).

Tests used:
cathepsin B [1] = molecular target: T1, cathepsin B (Rattus norvegicus, UniProt P00787); experiment: Cathepsin B activity in living CC531 colon cancer cells (CSLM, (Z-Arg)^2 -cresyl violet); format: cell-based; settings: living CC531 cells, 10 μM substrate (printed μm), 5 min, PBS
Procedure: An established rat colon carcinoma cell line, CC531, was used for all experiments. The parental cell line was obtained from a 1,2-dimethylhydrazine-induced moderately differentiated and weakly immunogenic colon adenocarcinoma in WAG-Rij rats (44). Cells were cultured in vitro at 37° C. as monolayers in Dulbecco's modification of Eagle's medium (ICN Biomedicals, Irvine, Ayrshire, UK) supplemented with 10% (w/v) fetal bovine serum, 2 mM glutamine, 100 IU penicillin/ml and 100 μg streptomycin/ml. Cells were washed in PBS and, after detachment by scraping and centrifugation (250 g, room temperature, 10 min), a single cell suspension at a final concentration of 1×10^6 cancer cells in 50 μl of PBS was obtained with a viability of at least 95% (45,46). Cell suspension were either used for cytochemical purposes or for in vivo administration to induce metastases in the liver.
(§1) Cathepsin B activity was detected in real-time in living CC531 cells and freshly prepared living rat hepatocytes after isolation by collagenase perfusion of livers of male mature rats after 24 h of starvation (47). At time point zero, cell preparations were diluted 20-fold in PBS containing either 10 μM (Z-Arg)^2 -cresyl violet (Enzyme Systems Products, Dublin, Calif.) as fluorogenic substrate for cathepsin B (48) or 10 μM substrate and 20 μM FMK (Protek, Dublin, Calif.), as selective cathepsin B inhibitor (40,41). The fluorogenic substrate is not fluorescent but after proteolytic cleavage, liberated cresyl violet is fluorescent. Synthesis of the substrate is described elsewhere in Ref. 48. The substrate was dissolved first in dimethyl formamide (final concentration in the incubation medium was 1% (v/v)). An aliquot of 100 μl of the cell suspensions was brought into a well formed by a stainless steel ring attached to a glass slide (49). Images of cells were captured in real-time with a Leica CSLM fitted to a Leica Fluovert inverted microscopic equipped with a PL APO oil-immersion objective (×63, NA 1.40). Excitation was performed at a wavelength of 560 nm and fluorescence was captured at greater than 580 nm. Excitation with the use of green light is harmless to living cells. The pinhole aperture was set at 100 giving an optimized image (50). With fixed pinhole, filter combination and a laser power setting adjusted to give minimal fading, the photomultiplier gain and photometric offset were optimized. Cells were subjected to optical serial sectioning after each 60 s of incubation up to 300 s. Images in the X-Y plane were recorded with intervals of 0.5 μm in the Z direction. For analysis, each optical section was averaged eight times. Images were recorded in a 512×512 pixel format. The size of each pixel represented 0.015 μm^2 in the object. […]

cathepsin B [2] = molecular target: T1, cathepsin B; experiment: Cathepsin B activity in living rat hepatocytes (CSLM, (Z-Arg)^2 -cresyl violet); format: cell-based; settings: living rat hepatocyte, 10 μM substrate (printed μm), 5 min, PBS
Procedure: as §1, with “Excitation with the use of green light is harmless to living cells. The pinhole aperture was set at 100 giving an optimized image (50). With fixed pinhole, filter combination and a laser power setting adjusted to give minimal fading, the photomultiplier gain and photometric offset were optimized. Cells were subjected to optical serial sectioning after each 60 s of incubation up to 300 s.” left out, “For analysis, each optical section was averaged eight times.” left out, “format.” for “format. The size of each pixel represented 0.015 μm^2 in the object.”

[3] = test system: living hepatocytes and colon cancer cells; experiment: Penetration of cresyl violet-based substrates into living cells; format: cell-based, rat
Procedure: Cathepsin B activity was detected in real-time in living CC531 cells and freshly prepared living rat hepatocytes after isolation by collagenase perfusion of livers of male mature rats after 24 h of starvation (47). At time point zero, cell preparations were diluted 20-fold in PBS containing either 10 μM (Z-Arg)^2 -cresyl violet (Enzyme Systems Products, Dublin, Calif.) as fluorogenic substrate for cathepsin B (48) or 10 μM substrate and 20 μM FMK (Protek, Dublin, Calif.), as selective cathepsin B inhibitor (40,41). The fluorogenic substrate is not fluorescent but after proteolytic cleavage, liberated cresyl violet is fluorescent. Synthesis of the substrate is described elsewhere in Ref. 48. The substrate was dissolved first in dimethyl formamide (final concentration in the incubation medium was 1% (v/v)). An aliquot of 100 μl of the cell suspensions was brought into a well formed by a stainless steel ring attached to a glass slide (49). […] Excitation was performed at a wavelength of 560 nm and fluorescence was captured at greater than 580 nm. […] Images in the X-Y plane were recorded with intervals of 0.5 μm in the Z direction. […] Images were recorded in a 512×512 pixel format. […]
The localization properties of cresyl violet in individual cells were investigated using confocal microscopy. […] The fluorescence is localized only in patches at the plasma membrane. […]

T1 sequence (P00787 80-333): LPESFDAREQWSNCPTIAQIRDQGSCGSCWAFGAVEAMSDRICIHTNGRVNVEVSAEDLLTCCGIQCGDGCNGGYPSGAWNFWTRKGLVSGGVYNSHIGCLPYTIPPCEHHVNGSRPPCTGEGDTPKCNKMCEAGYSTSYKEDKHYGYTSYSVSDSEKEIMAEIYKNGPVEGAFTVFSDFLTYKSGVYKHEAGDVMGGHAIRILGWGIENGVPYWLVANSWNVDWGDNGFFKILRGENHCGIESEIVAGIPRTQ

cell penetration [3]: penetrate living cells
Compound: N=C(N)NCCC[C@H](NC(=O)OCc1ccccc1)C(=O)NC1=CC2Oc3cc(NC(=O)[C@H](CCCNC(=N)N)NC(=O)OCc4ccccc4)ccc3N=C2c2ccccc21 (stereo partly drawn) [[Z-Arg]^2-cresyl violet]
localization of cathepsin B activity (cresyl violet fluorescence) (cathepsin B [1]): found at the plasma membrane (large arrowheads) and intracellularly | localization of cathepsin B activity (cresyl violet fluorescence) (cathepsin B [2]): present in granular lysosome-like intracellular compartments
